Measurements as given in patent US10973778B2, “Using edible carriers to produce Curcuma extracts for oral and topical use” (California Northstate College of Pharmacy, LLC, priority 2012, dated 2021).

Assay: UV absorption spectra of sunscreen agents and Curcuma longa L. extract
Assay type: physicochemical
Details: absorption spectrum in methanol; for wavelength above which absorption is practically zero / practically no absorption: 0.5-20 ug/ml depending on agent (FIGS. 1A-1D); for wavelength above which absorption is low / very low: octocrylene 0.5 ug/ml, avobenzone 5 ug/ml (FIGS. 1B, 1E)
Text: FIGS. 1A-1F compare the absorption spectra of representative current state-of-the-art sunscreen agents to the absorption spectra of Curcuma longa L., according to some embodiments.
The representative sunscreen agents show peaks in the absorption spectrum between the wavelengths of 290 nm to 400 nm which is the range of interest. Ideally, a desired agent would absorb energy across the entire range of 290 nm to 400 nm. In FIGS. 1A-1E, for example, a variety of peak positions are seen in the representative agents, where a high (desirable) absorption can be shown at the wavelength of the peak but there is usually a low or zero absorption at the trough, which is, of course, undesirable. Even combinations of sunscreen agents with peaks and troughs may leave areas within the wavelength range that are not covered, leaving wavelengths for which there is little or no UV protection, an undesirable situation.

Row | SMILES | wavelength above which absorption is practically zero / practically no absorption | wavelength above which absorption is low / very low
1 | CCCCC(CC)COC(=O)C(C#N)=C(c1ccccc1)c1ccccc1 (centres unmarked) [octocrylene] | about 380 nm | about 370 nm
2 | COc1ccc(C(=O)c2ccccc2)c(O)c1 [oxybenzone] | about 380 nm | 
3 | COc1ccc(C(=O)CC(=O)c2ccc(C(C)(C)C)cc2)cc1 [avobenzone] |  | about 390 nm
4 | CC1CC(OC(=O)c2ccccc2O)CC(C)(C)C1 (centres unmarked) [homosalate] | about 340 nm | 
